Experimental data as given in ChEMBL document CHEMBL1123117, “Synthesis and antiinflammatory and analgesic activity of 5-aroyl-1,2-dihydro-3H-pyrrolo[1,2-a]pyrrole-1-carboxylic acids and related compounds” (J Med Chem, 1985).

How the values were obtained:
physchem [1] = conditions: octanol/water
Description: Partition coefficient (logP) (HPLC)

Rattus norvegicus [2] = species on record: Rattus norvegicus; assay: animal or person; conditions: 168 h
Description: Effective dose causing 50 % gastrointestinal erosion using seven-day chronic assay.

Rattus norvegicus [3] = species on record: Rattus norvegicus; assay: animal or person
Description: Effective dose for rat paw assay

physchem [4] = assay: physchem
Description: Dissociation constant (pKa)

Mus musculus [5] = species on record: Mus musculus; assay: animal or person
Description: Effective dose for mouse writhing assay

Rattus norvegicus [6] = species on record: Rattus norvegicus; assay: animal or person; remark: listed apart in the source
Description: Effective dose for adjuvant arthritis assay

Rattus norvegicus [7] = species on record: Rattus norvegicus; assay: animal or person; remark: listed apart in the source
Description: Effective dose for cotton pellet assay

Rattus norvegicus [8] = species on record: Rattus norvegicus; assay: animal or person; conditions: 168 h, read-out: MED
Description: Minimum effective dose causing gastrointestinal erosion using seven-day chronic assay.

[9] = Therapeutic ratio as the ratio of MED value to that of ED30 for the carrageenan rat paw assay.; type: ADME; conditions: read-out: Therapeutic ratio
Mus musculus [10] = species on record: Mus musculus; assay: […] activity using mouse writhing assay.; type: functional
in vivo = conditions: rat
Rattus norvegicus [11] = species on record: Rattus norvegicus; assay: Antiinflammatory activity using adjuvant arthritis assay; type: functional

Compound	logP (physchem [1])	also measured
O=C(c1ccc(F)cc1F)c1ccc2n1CCC2C(=O)O (configuration not stated)	2.59	–
O=C(c1ccccc1)c1ccc2n1CCC2C(=O)O (configuration not stated) [KETOROLAC]	2.72	ED50 (Rattus norvegicus [2]): 13 mg/kg/day; ED30 (Rattus norvegicus [3]): 15 mg/kg; pKa (physchem [4]): 3.49; ED50 (Mus musculus [5]): 70 mg/kg; ED50 (Rattus norvegicus [6]): 1.7 mg/kg; ED30 (Rattus norvegicus [7]): 3 mg/kg; minimal effective dose (Rattus norvegicus [8]): 5 mg/kg/day; selectivity ratio [9]: 18
Cc1ccccc1C(=O)c1ccc2n1CCC2C(=O)O (configuration not stated)	2.9	pKa (physchem [4]): 3.44
O=C(c1c(F)cccc1F)c1ccc2n1CCC2C(=O)O (configuration not stated)	2.47	–
N#Cc1cccc(C(=O)c2ccc3n2CCC3C(=O)O)c1 (configuration not stated)	2.14	–
O=C(c1ccc(-c2ccccc2)cc1)c1ccc2n1CCC2C(=O)O (configuration not stated)	4.27	–
Cc1ccc(C(=O)c2ccc3n2CCCC3C(=O)O)cc1 (configuration not stated)	3.35	–
CC(C)Oc1ccc(C(=O)c2ccc3n2CCC3C(=O)O)cc1 (configuration not stated)	3.38	pKa (physchem [4]): 3.43
O=C(Cc1ccccc1)c1ccc2n1CCC2C(=O)O (configuration not stated)	2.52	–
CC(=O)c1ccc(C(=O)c2ccc3n2CCC3C(=O)O)cc1 (configuration not stated)	2.27	–
C=Cc1ccc(C(=O)c2ccc3n2CCC3C(=O)O)cc1 (configuration not stated)	3.47	ED50 (Rattus norvegicus [2]): 13 mg/kg/day; Activity (Mus musculus [10]): ~200; ED30 (Rattus norvegicus [3]): 15 mg/kg; ED50 (Mus musculus [5]): 70 mg/kg; ED50 (Rattus norvegicus [6]): 1.7 mg/kg; ED30 (Rattus norvegicus [7]): 3 mg/kg; minimal effective dose (Rattus norvegicus [8]): 5 mg/kg/day; selectivity ratio (in vivo): 18
O=C(c1ccccc1O)c1ccc2n1CCC2C(=O)O (configuration not stated)	2.94	–
O=C(c1ccccc1I)c1ccc2n1CCC2C(=O)O (configuration not stated)	2.98	–
N#Cc1ccc(C(=O)c2ccc3n2CCC3C(=O)O)cc1 (configuration not stated)	2.21	–
O=C(c1ccc2ccccc2c1)c1ccc2n1CCC2C(=O)O (configuration not stated)	3.97	pKa (physchem [4]): 3.44
COc1ccc(C(=O)c2ccc3n2CCCC3C(=O)O)cc1 (configuration not stated)	2.9	–

Compound	logP (physchem [1])	also measured
O=C(c1ccc2n1CCC2C(=O)O)C1CCC1 (configuration not stated)	2.41	pKa (physchem [4]): 3.54
O=C(c1ccc(C(F)(F)F)cc1)c1ccc2n1CCC2C(=O)O (configuration not stated)	3.71	–
CSc1ccc(C(=O)c2ccc3n2CCCCC3C(=O)O)cc1 (configuration not stated)	3.92	–
O=C(c1ccc(F)cc1)c1ccc2n1CCCC2C(=O)O (configuration not stated)	2.94	–
O=C(c1ccc(Cl)cc1)c1ccc2n1CC(C(=O)O)C2 (configuration not stated)	3.45	–
O=C(c1ccc(Cl)cc1)c1ccc2n1CCCC2C(=O)O (configuration not stated)	3.6	–
Cc1ccc(C(=O)c2ccc3n2CCC3C(=O)O)cc1 (configuration not stated)	3.24	ED50 (Rattus norvegicus [2]): 15 mg/kg/day; ED30 (Rattus norvegicus [3]): 15 mg/kg; pKa (physchem [4]): 3.44; ED50 (Mus musculus [5]): 70 mg/kg; ED50 (Rattus norvegicus [6]): 1.7 mg/kg; ED30 (Rattus norvegicus [7]): 3 mg/kg; minimal effective dose (Rattus norvegicus [8]): 3 mg/kg/day; selectivity ratio [9]: 8
C#CCOc1ccc(C(=O)c2ccc3n2CCC3C(=O)O)cc1 (configuration not stated)	3.63	–
CSc1ccc(C(=O)c2ccc3n2CCCC3C(=O)O)cc1 (configuration not stated)	3.54	–
O=C(c1ccccc1)c1ccc2n1CC(C(=O)O)C2 (configuration not stated)	2.57	–
C#Cc1ccc(C(=O)c2ccc3n2CCC3C(=O)O)cc1 (configuration not stated)	3.33	–
O=C(c1ccc(F)cc1)c1ccc2n1CCC2C(=O)O (configuration not stated)	2.82	ED50 (Rattus norvegicus [2]): 13 mg/kg/day; ED30 (Rattus norvegicus [3]): 15 mg/kg; pKa (physchem [4]): 3.51; ED50 (Mus musculus [5]): 70 mg/kg; ED50 (Rattus norvegicus [6]): 1.7 mg/kg; ED30 (Rattus norvegicus [7]): 3 mg/kg; minimal effective dose (Rattus norvegicus [8]): 5 mg/kg/day; selectivity ratio (in vivo): 20; Activity (Rattus norvegicus [11]): 1
CC(C)C(=O)Nc1cccc(C(=O)c2ccc3n2CCC3C(=O)O)c1 (configuration not stated)	2.57	–
COc1ccc(C(=O)c2ccc3n2CCC3C(=O)O)cc1 (configuration not stated) [ANIROLAC]	2.81	ED50 (Rattus norvegicus [2]): 22 mg/kg/day; ED30 (Rattus norvegicus [3]): 15 mg/kg; pKa (physchem [4]): 3.55; ED50 (Mus musculus [5]): 70 mg/kg; ED50 (Rattus norvegicus [6]): 1.7 mg/kg; ED30 (Rattus norvegicus [7]): 3 mg/kg; minimal effective dose (Rattus norvegicus [8]): 7 mg/kg/day; selectivity ratio (in vivo): 39
O=C(c1cccc(O)c1)c1ccc2n1CCC2C(=O)O (configuration not stated)	2.18	–
O=C(c1ccc([N+](=O)[O-])cc1)c1ccc2n1CCC2C(=O)O (configuration not stated)	2.48	–

More lines, main results first:

logP (physchem [1])	Compound	also measured
3.32	O=C(c1ccc(F)cc1)c1ccc2n1CCCCC2C(=O)O (configuration not stated)	–
3.6	O=C(c1ccc(Br)cc1)c1ccc2n1CCC2C(=O)O (configuration not stated)	–
3.61	O=C(c1ccc2c(c1)OCO2)c1ccc2n1CCC2C(=O)O (configuration not stated)	–
2.17	O=C(c1ccc(O)cc1)c1ccc2n1CCC2C(=O)O (configuration not stated) [P-HYDROXY KETOROLAC]	–
2.71	O=C(c1ccccc1Cl)c1ccc2n1CCC2C(=O)O (configuration not stated)	pKa (physchem [4]): 4.33
2.6	CC(C)(C)C(=O)c1ccc2n1CCC2C(=O)O (configuration not stated)	pKa (physchem [4]): 3.57
3.69	O=C(c1cccc(C(F)(F)F)c1)c1ccc2n1CCC2C(=O)O (configuration not stated)	–
3.48	O=C(c1cccc(Cl)c1)c1ccc2n1CCC2C(=O)O (configuration not stated)	pKa (physchem [4]): 3.44
3.68	CSc1ccc(C(=O)c2ccc3n2CCC3C(=O)O)cc1 (configuration not stated)	–
3.56	O=C(c1ccc(Cl)cc1Cl)c1ccc2n1CCC2C(=O)O (configuration not stated)	–
1.41	CS(=O)(=O)c1ccc(C(=O)c2ccc3n2CCC3C(=O)O)cc1 (configuration not stated)	–
3.48	C=CCOc1ccc(C(=O)c2ccc3n2CCC3C(=O)O)cc1 (configuration not stated)	–
3.23	Cc1cccc(C(=O)c2ccc3n2CCC3C(=O)O)c1 (configuration not stated)	pKa (physchem [4]): 3.44
3.31	CCOc1cccc(C(=O)c2ccc3n2CCC3C(=O)O)c1 (configuration not stated)	pKa (physchem [4]): 3.46
1.08	C[S+]([O-])c1ccc(C(=O)c2ccc3n2CCC3C(=O)O)cc1 (configuration not stated)	–
3.3	CCOc1ccc(C(=O)c2ccc3n2CCC3C(=O)O)cc1 (configuration not stated)	pKa (physchem [4]): 3.46
2.74	COc1cccc(C(=O)c2ccc3n2CCC3C(=O)O)c1 (configuration not stated)	–
2.61	O=C(c1cccc(Cl)c1)c1ccc2n1CCCC2C(=O)O (configuration not stated)	–
3.17	O=C(c1ccccc1)c1ccc2n1CCCCC2C(=O)O (configuration not stated)	–
3.24	O=C(c1c(F)c(F)c(F)c(F)c1F)c1ccc2n1CCC2C(=O)O (configuration not stated)	–
2.9	O=C(c1cccc(F)c1)c1ccc2n1CCC2C(=O)O (configuration not stated)	pKa (physchem [4]): 3.46
2.47	O=C(c1cccc([N+](=O)[O-])c1)c1ccc2n1CCC2C(=O)O (configuration not stated)	–
1.53	CS(=O)(=O)c1ccc(C(=O)c2ccc3n2CCCC3C(=O)O)cc1 (configuration not stated)	–
